According to US12509460B2 (Skyhawk Therapeutics, Inc., priority 2019, dated 2025):
Where two headings read alike, the source gives them in different places.

Columns and labels:
[1] = system: SMN FL and SMN Δ7 in spinal muscular atrophy (SMA) patient fibroblasts (GM03813, Coriell); experiment: Quantitative splicing assay (SMN), qPCR; assay type: cell-based, human; settings: Homo sapiens, Fibroblast, 24 h, read-out: SMN2 Splicing FL EC50
Description: Spinal muscular atrophy (SMA) patient fibroblasts (GM03813, Coriell) are plated in 96-well plates at 50,000 cells/well. […] Treated cells are lysed and cDNA synthesized using the Fast Advanced Cells-to-Ct kit (Thermofisher A35378) according to the manufacturer's instructions. 2 μL of each cDNA are used in qPCR reactions. […] Reactions are run in a Quant Studio 6 qPCR instrument with default settings.

MDR1 (P-gp) = experiment: Blood-brain-barrier (BBB) penetration potential via MDCK-MDR1 permeability assay; settings: dog; for Papp A→B at 120 min, 5 μM: MDCK-MDR1, pH 7.4, MDCK-MDR1: Papp A-B; for Papp B→A at 120 min, 5 μM: MDCK-MDR1, pH 7.4, MDCK-MDR1: Papp B-A
[2] = system: MDR1-MDCK cell monolayers; experiment: as above
MDR1 = experiment: as above; settings: dog, MDCK-MDR1, pH 7.4, MDCK-MDR1: Efflux
[3] = system: SMN protein in spinal muscular atrophy (SMA) patient fibroblasts (GM03813, Coriell); experiment: SMN protein assay, Mesoscale Discovery (MSD); assay type: cell-based, human; settings: read-out: SMN2 protein EC50
Summary of the method: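 Absolute SMN levels were quantified by MSD against an SMN protein standard curve (1 μg/ml to 19.5 pg/ml) run on each plate. Samples were lysates of GM03813 patient fibroblasts (7000 cells/well) treated 48 hours with compound doses from 2.5 μM down to 0.6 nM.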

[4] = Quantitative splicing assay (HTT), qPCR; assay type: cell-based, human; settings: Homo sapiens, GM04724, 24 h, GM04724 lymphoblasts, read-out: HTT Splicing: E49-50 EC50
Summary of the method: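 TaqMan qPCR on cell-lysate cDNA quantifies cryptic-exon inclusion from HTT intron 49. Lymphoblasts plated at 50,000 cells/well had received compound for 24 h, 0.15 nM-2.5 uM range, 0.1% DMSO.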

[5] = system: mHTT protein in GM04724 (CAG 70/20) Huntington's disease patient lymphoblast cells; experiment: mHTT protein assay, 2B7-MW1 assay via Mesoscale Discovery (MSD); assay type: cell-based, human
Summary of the method: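 Signal from the 2B7-MW1 antibody pair on MSD, rising with polyQ length and smaller HTT fragments, measured mHTT after 48 h compound exposure (0.6 nM–10 μM) in GM04724 cells. A parallel replicate plate gave CellTiter Glo viability.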

[6] = SMA patient fibroblasts GM03813, 24 h, qPCR
[7] = SMA patient fibroblasts GM03813, 48 hours, MSD
[8] = GM04724 Huntington's disease patient lymphoblasts

| SMILES | EC50 [1, 6] [nM] | Papp A→B at 120 min, 5 μM (MDR1 (P-gp); A-B direction) [×10⁻⁶ cm/s] | Papp B→A at 120 min, 5 μM (MDR1 (P-gp); B-A direction) [×10⁻⁶ cm/s] | MDCK-MDR1: % Recov A-B ([2]; A-B direction) [%] | MDCK-MDR1: % Recov B-A ([2]; B-A direction) [%] | efflux ratio at 120 min, 5 μM (MDR1; efflux ratio) | EC50 [3, 7] [nM] | EC50 ([4]; qPCR) [nM] | EC50 [5, 8] [nM] | EC50 ([1]; SMA patient fibroblasts (GM03813)) [nM] | Papp A→B at 120 min, 5 μM (MDR1 (P-gp); A-B) [×10⁻⁶ cm/s] | Papp B→A at 120 min, 5 μM (MDR1 (P-gp); B-A) [×10⁻⁶ cm/s] | MDCK-MDR1: % Recov A-B ([2]; A-B) [%] | MDCK-MDR1: % Recov B-A ([2]; B-A) [%] | efflux ratio at 120 min, 5 μM (MDR1) | EC50 ([3]; SMA patient fibroblasts (GM03813), 48 hours) [nM] | EC50 [4] [nM] | EC50 ([5]; GM04724 (CAG 70/20) Huntington's disease patient lymphoblasts) [nM] |
| --- | --- | --- | --- | --- | --- | --- | --- | --- | --- | --- | --- | --- | --- | --- | --- | --- | --- | --- |
| CN(c1ccc(-c2ccc(-c3cn[nH]c3)cc2O)nn1)[C@@H]1C[C@H]2CC[C@H](N2)[C@@H]1F (single isomer, unassigned) [Compound 42A] | 0.01 to 15 | 0.86 | 36.8 | 87 | 91 | 43 | 0.01 to 15 | 0.01 to 15 | 0.01 to 15 | – | – | – | – | – | – | – | – | – |
| Cc1cc(=O)c2cc(O)c(-c3ccc(N(C)[C@H]4C[C@@H]5CC[C@@H](N5)[C@H]4F)nn3)cc2o1 [Compound 49B, 7-(6-(((1R,2R,3S,5S)-2-fluoro-8-azabicyclo[3.2.1]octan-3-yl)(methyl)amino)pyridazin-3-yl)-6-hydroxy-2-methyl-4H-chromen-4-one] | 0.01 to 15 | 0.86 | 32.9 | 86 | 91 | 38 | 0.01 to 15 | 0.01 to 15 | 0.01 to 15 | – | – | – | – | – | – | – | – | – |
| CN(c1ccc(-c2ccc(-n3nccn3)cc2O)nn1)[C@H]1C[C@@H]2CC[C@@H](N2)[C@H]1F [Compound 90B, 2-(6-(((1R,2R,3S,5S)-2-fluoro-8-azabicyclo[3.2.1]octan-3-yl)(methyl)amino)pyridazin-3-yl)-5-(2H-1,2,3-triazol-2-yl)phenol] | 0.01 to 15 | 6.56 | 16.1 | 43 | 67 | 2 | 16 to 50 | 0.01 to 15 | 0.01 to 15 | – | – | – | – | – | – | – | – | – |
| CNC(=O)c1cc(O)c(-c2ccc(N(C)[C@H]3C[C@@H]4CC[C@@H](N4)[C@H]3F)nn2)cc1F [Compound 47B, 2-fluoro-4-(6-(((1R,2R,3S,5S)-2-fluoro-8-azabicyclo[3.2.1]octan-3-yl)(methyl)amino)pyridazin-3-yl)-5-hydroxy-N-methylbenzamide] | 51 to 100 | 1.26 | 49.8 | 101 | 120 | 40 | 16 to 50 | 51 to 100 | 51 to 100 | – | – | – | – | – | – | – | – | – |
| CN(c1ccc(-c2cc3cccnc3cc2O)nn1)[C@H]1C[C@@H]2CCC[C@@H](N2)[C@H]1F [Compound 41B, 6-(6-(((1R,2R,3S,5S)-2-fluoro-9-azabicyclo[3.3.1]nonan-3-yl)(methyl)amino)pyridazin-3-yl)quinolin-7-ol] | 16 to 50 | 2.57 | 36.7 | 60 | 95 | 14 | 0.01 to 15 | 16 to 50 | 0.01 to 15 | – | – | – | – | – | – | – | – | – |
| Cc1nc2cc(O)c(-c3ccc(N(C)[C@H]4C[C@@H]5CC[C@@H](N5)[C@H]4F)nn3)cc2o1 [Compound 117B, 6-(6-(((1R,2R,3S,5S)-2-fluoro-8-azabicyclo[3.2.1]octan-3-yl)(methyl)amino)pyridazin-3-yl)-2-methylbenzo[d]oxazol-5-ol] | – | – | – | – | – | – | – | – | – | 16 to 50 | 4.32 | 45 | 90 | 86 | 10 | 0.01 to 15 | 16 to 50 | 0.01 to 15 |
| CN(c1ccc(-c2cc(F)c(-n3ccnn3)cc2O)nn1)[C@@H]1C[C@H]2CC[C@H](N2)[C@@H]1F [Compound 52A, 4-fluoro-2-(6-(((1S,2S,3R,5R)-2-fluoro-8-azabicyclo[3.2.1]octan-3-yl)(methyl)amino)pyridazin-3-yl)-5-(1H-1,2,3-triazol-1-yl)phenol] | 51 to 100 | 6.63 | 49.7 | 86 | 92 | 8 | 16 to 50 | 101 to 500 | 16 to 50 | – | – | – | – | – | – | – | – | – |
| CN(c1ccc(-c2cc3cncnc3cc2O)nn1)[C@H]1C[C@@H]2CC[C@@H](N2)[C@H]1F [Compound 75B, 6-(6-(((1R,2R,3S,5S)-2-fluoro-8-azabicyclo[3.2.1]octan-3-yl)(methyl)amino)pyridazin-3-yl)quinazolin-7-ol] | 16 to 50 | 2.44 | 50.5 | 88 | 90 | 21 | 16 to 50 | 51 to 100 | 51 to 100 | – | – | – | – | – | – | – | – | – |
| CN(c1ccc(-c2ccc(-c3cnccn3)cc2O)nn1)[C@H]1C[C@@H]2CCC[C@@H](N2)[C@H]1F [Compound 24B, 2-(6-(((1R,2R,3S,5S)-2-fluoro-9-azabicyclo[3.3.1]nonan-3-yl)(methyl)amino)pyridazin-3-yl)-5-(pyrazin-2-yl)phenol] | 0.01 to 15 | 5.99 | 33.8 | 73 | 91 | 6 | 0.01 to 15 | 0.01 to 15 | 0.01 to 15 | – | – | – | – | – | – | – | – | – |
| CN(c1ccc(-c2ccc(C3=CCCC3)cc2O)nn1)[C@H]1C[C@@H]2CC[C@@H](N2)[C@H]1F [Compound 34B, 5-(cyclopent-1-en-1-yl)-2-(6-(((1R,2R,3S,5S)-2-fluoro-8-azabicyclo[3.2.1]octan-3-yl)(methyl)amino)pyridazin-3-yl)phenol] | 16 to 50 | 1.02 | 2.81 | 12 | 48 | 3 | 16 to 50 | 51 to 100 | 51 to 100 | – | – | – | – | – | – | – | – | – |
| CN(c1ccc(-c2ccc(-n3nccn3)cc2O)nn1)[C@@H]1C[C@H]2CCC[C@H](N2)[C@@H]1F [Compound 5A, 2-(6-(((1S,2S,3R,5R)-2-fluoro-9-azabicyclo[3.3.1]nonan-3-yl)(methyl)amino)pyridazin-3-yl)-5-(2H-1,2,3-triazol-2-yl)phenol] | 16 to 50 | 4.85 | 20.1 | 29 | 58 | 4 | 0.01 to 15 | 0.01 to 15 | 0.01 to 15 | – | – | – | – | – | – | – | – | – |
| CN(c1ccc(-c2ccc(-c3cc[nH]n3)cc2O)nn1)[C@H]1C[C@@H]2CC[C@@H](N2)[C@H]1F (single isomer, unassigned) [Compound 33B] | 16 to 50 | 1.75 | 53 | 87 | 82 | 30 | 0.01 to 15 | 0.01 to 15 | 0.01 to 15 | – | – | – | – | – | – | – | – | – |
| Cc1ccc(-c2ccc(-c3ccc(N(C)[C@H]4C[C@@H]5CC[C@@H](N5)[C@H]4F)nn3)c(O)c2)nn1 (single isomer, unassigned) [Compound 25B] | 16 to 50 | 1.61 | 46.8 | 105 | 108 | 29 | 0.01 to 15 | 16 to 50 | 16 to 50 | – | – | – | – | – | – | – | – | – |
| CN(c1ccc(-c2ccc(-c3cn[nH]c3)cc2O)nn1)[C@H]1C[C@@H]2CC[C@@H](N2)[C@H]1F (single isomer, unassigned) [Compound 42B] | 0.01 to 15 | 0.71 | 27.7 | 78 | 73 | 39 | 0.01 to 15 | 0.01 to 15 | 0.01 to 15 | – | – | – | – | – | – | – | – | – |
